Laboratory results published in patent US10172864B2, “Therapeutically active compounds and their methods of use” (AGIOS PHARMACEUTICALS, INC, priority 2013, dated 2019).

Target: IDH1 wt/IDH1 R132H heterodimer (Homo sapiens (Human), UniProt O75874, R132H)
Experiment: IDH1 wt/IDH1 R132H heterodimer enzymatic assay, NADPH depletion with diaphorase/resazurin readout
Assay type: biochemical
Conditions: 300 μM NADP (saturated)
Description: The following describes the experimental procedures that can be used to obtain data on columns 2 and 4 of Table 4 and column 2 of Table 5.
In the primary reaction, the reduction of α-KG acid to 2-HG is accompanied by a concomitant oxidation of NADPH to NADP. The amount of NADPH remaining at the end of the reaction time is measured in a secondary diaphorase/resazurin reaction in which the NADPH is consumed in a 1:1 molar ratio with the conversion of resazurin to the highly fluorescent resorufin.
The mixture of compound, enzyme, and cofactor is pre-incubated at room temperature for 1 hr prior to the addition of alpha-ketoglutarate. To perform the secondary reaction, 10 uL of 1× buffer containing 36 μg/ml diaphorase and […] resazurin is added to the primary reaction and incubated for a further 5 minutes at 25° C. […] Compounds or compound dilutions are prepared in 100% DMSO concentration and diluted 1:50 into the final reaction. […] IC50s are determined.
IDH1 or IDH2 wildtype (wt) and mutant heterodimers are expressed and purified by methods known in the art. […] Host cell contaminants are removed by washing the column with equilibration buffer followed by equilibration buffer containing 20 mM imidazole and 60 mM imidazole to baseline. […]

IDH1 wt/IDH1 R132H heterodimer, sequence (O75874 whole entry R132H): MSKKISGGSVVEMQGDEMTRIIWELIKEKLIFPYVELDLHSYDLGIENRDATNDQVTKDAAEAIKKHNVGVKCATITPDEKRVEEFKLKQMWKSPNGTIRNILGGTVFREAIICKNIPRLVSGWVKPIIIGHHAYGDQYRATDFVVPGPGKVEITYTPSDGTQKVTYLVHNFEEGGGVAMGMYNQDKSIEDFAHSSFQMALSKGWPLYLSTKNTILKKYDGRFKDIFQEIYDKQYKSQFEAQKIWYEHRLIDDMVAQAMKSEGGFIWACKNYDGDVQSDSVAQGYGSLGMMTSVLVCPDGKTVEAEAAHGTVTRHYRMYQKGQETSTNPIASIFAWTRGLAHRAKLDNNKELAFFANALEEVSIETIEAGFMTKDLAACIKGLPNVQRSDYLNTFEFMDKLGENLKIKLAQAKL
IDH1 wt/IDH1 R132H heterodimer, sequence (O75874 whole entry, stated change not applied): as the sequence (O75874 whole entry R132H) above, with H132R counted along it

IC50: 50 to 100 nM
Compound: FC1(F)CCC(Nc2nc(NC3CCC(F)(F)CC3)nc(-c3nc(C(F)(F)F)cs3)n2)CC1 [Compound 357]
